US5312815A, “Fungicidal (+)-2-(2,4-difluorophenyl)-3-methyl-1-(1H-1,2,4-triazol-1-yl)3-(6-(1H-1, 2,4-triazol-1-yl)pyridazin-3-ylthio) butan-2-ol” (Roussel Morishita Co., Ltd., priority 1992, dated 1994)
In brackets after ≈: the same amount, converted by molar mass.

Columns and labels:
Acute toxicity in mice = type: in vivo, ICR male mouse; conditions: 1000 mg/kg oral, in 0.5% MC, 5 mice per group, 7 days
[1] = test system: Aspergillus fumigatus Kawasaki strain; experiment: In vivo antifungal activity, Aspergillus fumigatus infected mice, oral; parameters: species or system mouse; conditions: 25 mg/kg p.o. twice a day, 4 days; for Mean Survival Days: 10 days observation; for Survival Number on Day 1 / Survival Number on Day 2 / Survival Number on Day 3 / Survival Number on Day 4 / Survival Number on Day 5 / Survival Number on Day 6 / Survival Number on Day 7 / Survival Number on Day 8 / Survival Number on Day 9 / Survival Number on Day 10: of 9 mice
Procedure: (§1) Asperoillus fumigatus Kawasaki strain having been cultured at 27° C. for 1 week was suspended in physiological saline, and the suspension (3×10^6 cells) was injected into the tail vein of a 4-week-old day male mouse (9 mice per group). Two days before the infection and on the day of the infection, 100 mg/kg of cyclophosphamide was intraperitoneally administered to each animal.
For comparison, compound (A) shown below which is described in EP 0421210A2, fluconazole (FCZ) and itraconazole (ITZ), were used as a comparative substance. Itraconazole was administered in a polyethylene glycol (400) solution. [drawing 4]

[2] = Plasma level in dogs (HPLC); type: in vivo, beagles (dogs); conditions: dog; for concentration at 0.5 h / concentration at 1 h / concentration at 2 h / concentration at 3 h / concentration at 5 h / concentration at 8 h / concentration at 24 h: plasma
Procedure: Two beagles per group each received an oral preparation of an inclusion complex composed of the compound of Example 1 and maltosyl-β-cyclodextrin (G2 -β-CyD) at a dose of 10 mg of the compound of Example 1 per kg-b.w. or an intravenous injection of the inclusion complex at a dose of 5 mg of the compound of Example 1 per kg-b.w. For comparison, a suspension of the compound of Example 1 in 0.5% methyl cellulose (MC) was orally administered at a dose of 10 mg per kg-b.w. A-blood sample was taken at 0.5, 1, 2, 3, 5, 8, and 24 hours after administration. After deproteination, the concentration of the compound of formula (I) in the sample was determined by high performance liquid chromatography (HPLC).

[3] = test system: Aspergillus fumigatus Kawasaki strain; experiment: In vivo antifungal activity, Aspergillus fumigatus infected mice, i.v.; parameters: species or system mouse; conditions: 12.5 mg/kg i.v. twice a day, 4 days
Procedure: as §1, with “Aspergillus fumigatus Kawasaki” for “Asperoillus fumigatus Kawasaki”, “and the cell suspension (3×10^6” for “and the suspension (3×10^6”
(§2) For comparison, fluconazole was used as a comparative substance.

Candida albicans = experiment: In vitro antifungal activity, MIC on mycelium formation; type: cell-based; conditions: 37° C., 24 hours, Eagle's MEM with 10% fetal bovine serum
Procedure: (§3) Candida albicans (10^2 cells) or Aspergillus fumigatus (10^3 cells) was inoculated to 200 μl of an Eagle's minimum essential medium containing 10% fetal bovine serum and a test compound shown in Table 2 below at a dilution increasing by a factor of 2. The system was incubated at 37° C. for 24 hours in a 5 v/v% CO2 stream to obtain the minimum inhibitory concentration (MIC) on mycelium formation.

Aspergillus fumigatus = experiment: as above; type: cell-based; conditions: 37° C., 24 hours, Eagle's MEM with 10% fetal bovine serum
Procedure: as §3

[4] = test system: Candida albicans CAA-14 strain; experiment: In vivo antifungal activity, Candida albicans infected mice, i.v.; parameters: species or system ICR male mouse; conditions: 5 mg/kg i.v. twice a day, 2 days, Example 1 as G2-β-CyD complex, FCZ in saline
Procedure: Candida albicans CAA-14 strain having been cultured at 30° C. for 24 hours was suspended in physiological saline, and the cell suspension (5×10^6 cells) was injected into the tail vein of a 5-week-old ICR male mouse (9 mice per group). Two days before the infection and on the day of the infection, 100 mg/kg of cyclophosphamide was intraperitoneally administered to each animal.
as §2

[5] = iv, 5 mg/kg, G2-β-CyD inclusion complex
[6] = po, 10 mg/kg, G2-β-CyD inclusion complex
[7] = po, 10 mg/kg, suspension in 0.5% MC
[8] = of 9 mice, Example 1 as G2-β-CyD complex, FCZ in saline

Cc1nnc(SC(C)C(O)(Cn2cncn2)c2ccc(F)cc2F)s1 (stereo not drawn) [compound (A), reference compound]
life or death, acute toxicity (Acute toxicity in mice): all of the mice died | Mean Survival Days ([1]; in 0.5% MC (ITZ: in PEG 400)): 2.3 days | Survival Number on Day 1 ([1]; in 0.5% MC (ITZ: in PEG 400)): 9 | Survival Number on Day 2 ([1]; in 0.5% MC (ITZ: in PEG 400)): 9 | Survival Number on Day 3 ([1]; in 0.5% MC (ITZ: in PEG 400)): 3 | Survival Number on Day 4 ([1]; in 0.5% MC (ITZ: in PEG 400)): 0

CC(C)(Sc1ccc(-n2cncn2)nn1)C(O)(Cn1cncn1)c1ccc(F)cc1F (single isomer, unassigned; (+)) [Example 1, (+)-2-(2,4-difluorophenyl)-3-methyl-1-(1H-1,2,4-triazol-1-yl)-3-(6-(1H-1,2,4-triazol-1-yl)pyridazin-3-ylthio)butan-2-ol]
life or death, acute toxicity (Acute toxicity in mice): No case of death | absorption from the gastrointestinal tract ([2]; p.o., inclusion complex with cyclodextrin derivative vs MC suspension): markedly increased absorption from the gastrointestinal tract | concentration at 0.5 h [2, 5]: 4100 ng/mL | concentration at 1 h [2, 5]: 3400 ng/mL | concentration at 2 h [2, 5]: 2800 ng/mL | concentration at 3 h [2, 5]: 2000 ng/mL | concentration at 5 h [2, 5]: 1700 ng/mL | concentration at 8 h [2, 5]: 1300 ng/mL | concentration at 24 h [2, 5]: 300 ng/mL | concentration at 0.5 h [2, 6]: 2500 ng/mL | concentration at 1 h [2, 6]: 2800 ng/mL | concentration at 2 h [2, 6]: 2900 ng/mL | concentration at 3 h [2, 6]: 2600 ng/mL | concentration at 5 h [2, 6]: 2500 ng/mL | concentration at 8 h [2, 6]: 2200 ng/mL | concentration at 24 h [2, 6]: 700 ng/mL | concentration at 0.5 h [2, 7]: 300 ng/mL | concentration at 1 h [2, 7]: 300 ng/mL | concentration at 2 h [2, 7]: 300 ng/mL | concentration at 3 h [2, 7]: 200 ng/mL | concentration at 5 h [2, 7]: 400 ng/mL | concentration at 8 h [2, 7]: 300 ng/mL | concentration at 24 h [2, 7]: 200 ng/mL | Mean Survival Days ([3]; Example 1 as G2-β-CyD complex, FCZ in saline, 10 days observation): > 9.0 days | Survival Number on Day 1 [3, 8]: 9 | Survival Number on Day 2 [3, 8]: 9 | Survival Number on Day 3 [3, 8]: 9 | Survival Number on Day 4 ([3]; of 9 mice, G2-β-CyD complex): 9 | Survival Number on Day 5 ([3]; of 9 mice, G2-β-CyD complex): 8 | Survival Number on Day 6 ([3]; of 9 mice, G2-β-CyD complex): 8 | Survival Number on Day 7 ([3]; of 9 mice, G2-β-CyD complex): 8 | Survival Number on Day 8 ([3]; of 9 mice, G2-β-CyD complex): 7 | Survival Number on Day 9 ([3]; of 9 mice, G2-β-CyD complex): 7 | Survival Number on Day 10 ([3]; of 9 mice, G2-β-CyD complex): 7 | MIC on Mycelium Formation, C. albicans (Candida albicans): 0.05 µg/mL (≈ 0.112 µM) | MIC on Mycelium Formation, A. fumigatus (Aspergillus fumigatus): 3.13 µg/mL (≈ 7.04 µM) | Mean Survival Days ([1]; G2-β-CyD inclusion complex): > 10 days | Mean Survival Days ([1]; in 0.5% MC (ITZ: in PEG 400)): 5.9 days | Survival Number on Day 1 ([1]; G2-β-CyD inclusion complex): 9 | Survival Number on Day 2 ([1]; G2-β-CyD inclusion complex): 9 | Survival Number on Day 3 ([1]; G2-β-CyD inclusion complex): 9 | Survival Number on Day 4 ([1]; G2-β-CyD inclusion complex): 9 | Survival Number on Day 5 ([1]; G2-β-CyD inclusion complex): 9 | Survival Number on Day 6 ([1]; G2-β-CyD inclusion complex): 9 | Survival Number on Day 7 ([1]; G2-β-CyD inclusion complex): 9 | Survival Number on Day 8 ([1]; G2-β-CyD inclusion complex): 9 | Survival Number on Day 9 ([1]; G2-β-CyD inclusion complex): 9 | Survival Number on Day 10 ([1]; G2-β-CyD inclusion complex): 9 | Survival Number on Day 5 ([1]; in 0.5% MC): 5 | Survival Number on Day 6 ([1]; in 0.5% MC): 4 | Survival Number on Day 7 ([1]; in 0.5% MC): 4 | Survival Number on Day 8 ([1]; in 0.5% MC): 2 | Survival Number on Day 9 ([1]; in 0.5% MC): 2 | Survival Number on Day 10 ([1]; in 0.5% MC): 2 | Survival Number on Day 1 ([1]; in 0.5% MC (ITZ: in PEG 400)): 9 | Survival Number on Day 2 ([1]; in 0.5% MC (ITZ: in PEG 400)): 9 | Survival Number on Day 3 ([1]; in 0.5% MC (ITZ: in PEG 400)): 9 | Survival Number on Day 4 ([1]; in 0.5% MC (ITZ: in PEG 400)): 5 | Mean Survival Days ([4]; 10 days observation): > 10.0 days | Survival Number on Day 1 ([4]; of 9 mice): 9 | Survival Number on Day 2 ([4]; of 9 mice): 9 | Survival Number on Day 3 ([4]; of 9 mice): 9 | Survival Number on Day 4 ([4]; of 9 mice): 9 | Survival Number on Day 5 ([4]; of 9 mice): 9 | Survival Number on Day 6 ([4]; of 9 mice): 9 | Survival Number on Day 7 ([4]; of 9 mice): 9 | Survival Number on Day 8 ([4]; of 9 mice): 9 | Survival Number on Day 9 ([4]; of 9 mice): 9 | Survival Number on Day 10 ([4]; of 9 mice): 9
